Results published in patent US20130338130A1 (priority 2009, published 2013).
Where two headings read alike, the source gives them in different places.

System: ATCC strain 43300 Staphylococcus aureus
Conditions: 24 hours; for average log reduction in cfu/ml: MSM (% in label) with antibiotic (12, 30, 60 μg/ml oxacillin or methicillin)
Protocol: All concentrations were plated out to the 10^−7 dilutions to ascertain cfu/ml.
ATCC strain 43300 Staphylococcus aureus was streaked out for isolations and 25 clones were picked and diluted to a McFarland standard of one. The estimated value was then taken to inoculate tubes containing growth media and 12, 30 or 60 μg/ml methicillin or oxacillin with around 10^−7 cfu/tube.
Material was calculated on a 10 ml volume. Sterile oxacillin or methicillin was added to each experimental condition to a final concentration of 12, 30 or 60 μg/ml antibiotic.
All tubes were then inoculated with a dilution of the selected ATCC strain 43300 Staphylococcus aureus clone giving a final level of colony forming units of 9.4×10^7/ml (log=7.97). The tubes were incubated at 25° C. and mixed periodically. […] Plating was done at 24 hours. Each condition was plated by diluting 1 ml of growth material into 9 ml of MLB diluent broth. This mixture was serial diluted down to 10^−7, and 1 ml placed in a sterile petri dish at each dilution point. 20 mls of TSA was added to each dilution, swirled and allowed to solidify. All dilutions were placed in a 35° C. incubator for 24 hours. Bacterial colonies on each plate were counted and colony counts changed into log format. A positive and negative control was ascertained.

CS(C)(=O)=O [MSM, Methylsulfonylmethane]
survival (Log cfu/ml) (12 μg/ml methicillin + MSM (% in label), inoculum log=7.97, listed as 5% MSM): 5.43 Log cfu/ml | survival (Log cfu/ml) (12 μg/ml methicillin + MSM (% in label), inoculum log=7.97, listed as 6% MSM): 5.2 Log cfu/ml | survival (Log cfu/ml) (12 μg/ml methicillin + MSM (% in label), inoculum log=7.97, listed as 7% MSM): 5.46 Log cfu/ml | survival (Log cfu/ml) (12 μg/ml methicillin + MSM (% in label), inoculum log=7.97, listed as 8% MSM): 5.0 Log cfu/ml | survival (Log cfu/ml) (12 μg/ml methicillin + MSM (% in label), inoculum log=7.97, listed as 9% MSM): 4.99 Log cfu/ml | survival (Log cfu/ml) (12 μg/ml methicillin + MSM (% in label), inoculum log=7.97, listed as 10% MSM): 4.8 Log cfu/ml | survival (Log cfu/ml) (12 μg/ml methicillin + MSM (% in label), inoculum log=7.97, listed as 11% MSM): 4.87 Log cfu/ml | survival (Log cfu/ml) (12 μg/ml methicillin + MSM (% in label), inoculum log=7.97, listed as 12% MSM): 4.89 Log cfu/ml | survival (Log cfu/ml) (12 μg/ml methicillin + MSM (% in label), inoculum log=7.97, listed as 13% MSM): 4.77 Log cfu/ml | survival (Log cfu/ml) (12 μg/ml methicillin + MSM (% in label), inoculum log=7.97, listed as 14% MSM): 4.7 Log cfu/ml | survival (Log cfu/ml) (12 μg/ml oxacillin + MSM (% in label), listed as 5% MSM): 5.28 Log cfu/ml | survival (Log cfu/ml) (12 μg/ml oxacillin + MSM (% in label), listed as 6% MSM): 5.26 Log cfu/ml | survival (Log cfu/ml) (12 μg/ml oxacillin + MSM (% in label), listed as 7% MSM): 5.18 Log cfu/ml | survival (Log cfu/ml) (12 μg/ml oxacillin + MSM (% in label), listed as 8% MSM): 5.18 Log cfu/ml | survival (Log cfu/ml) (12 μg/ml oxacillin + MSM (% in label), listed as 9% MSM): 5.16 Log cfu/ml | survival (Log cfu/ml) (12 μg/ml oxacillin + MSM (% in label), listed as 10% MSM): 4.96 Log cfu/ml | survival (Log cfu/ml) (12 μg/ml oxacillin + MSM (% in label), listed as 11% MSM): 4.8 Log cfu/ml | survival (Log cfu/ml) (12 μg/ml oxacillin + MSM (% in label), listed as 12% MSM): 4.8 Log cfu/ml | survival (Log cfu/ml) (12 μg/ml oxacillin + MSM (% in label), listed as 13% MSM): 4.9 Log cfu/ml | survival (Log cfu/ml) (12 μg/ml oxacillin + MSM (% in label), listed as 14% MSM): 4.88 Log cfu/ml | survival (Log cfu/ml) (30 μg/ml methicillin + MSM (% in label), listed as 9% MSM): 5.07 Log cfu/ml | survival (Log cfu/ml) (30 μg/ml methicillin + MSM (% in label), listed as 10% MSM): 4.8 Log cfu/ml | survival (Log cfu/ml) (30 μg/ml methicillin + MSM (% in label), listed as 11% MSM): 4.8 Log cfu/ml | survival (Log cfu/ml) (30 μg/ml methicillin + MSM (% in label), listed as 12% MSM): 4.7 Log cfu/ml | survival (Log cfu/ml) (30 μg/ml methicillin + MSM (% in label), listed as 13% MSM): 4.7 Log cfu/ml | survival (Log cfu/ml) (30 μg/ml methicillin + MSM (% in label), listed as 14% MSM): 4.6 Log cfu/ml | survival (Log cfu/ml) (30 μg/ml methicillin + MSM (% in label), listed as 15% MSM): 4.54 Log cfu/ml | survival (Log cfu/ml) (30 μg/ml methicillin + MSM (% in label), listed as 16% MSM): 4.47 Log cfu/ml | survival (Log cfu/ml) (30 μg/ml oxacillin + MSM (% in label), listed as 9% MSM): 5.02 Log cfu/ml | survival (Log cfu/ml) (30 μg/ml oxacillin + MSM (% in label), listed as 10% MSM): 4.99 Log cfu/ml | survival (Log cfu/ml) (30 μg/ml oxacillin + MSM (% in label), listed as 11% MSM): 4.94 Log cfu/ml | survival (Log cfu/ml) (30 μg/ml oxacillin + MSM (% in label), listed as 12% MSM): 4.87 Log cfu/ml | survival (Log cfu/ml) (30 μg/ml oxacillin + MSM (% in label), listed as 13% MSM): 4.9 Log cfu/ml | survival (Log cfu/ml) (30 μg/ml oxacillin + MSM (% in label), listed as 14% MSM): 4.82 Log cfu/ml | survival (Log cfu/ml) (30 μg/ml oxacillin + MSM (% in label), listed as 15% MSM): 4.74 Log cfu/ml | survival (Log cfu/ml) (30 μg/ml oxacillin + MSM (% in label), listed as 16% MSM): 4.59 Log cfu/ml | average log reduction in cfu/ml (listed as 5% MSM): 2.2 log | average log reduction in cfu/ml (listed as 16% MSM): 3.3 log | colony numbers (MSM without antibiotic control condition): greater colony numbers than what was initially inoculated
